Reference: PMC10257182, “Discovery of senolytics using machine learning” (Nature Communications, 2023)
Read-outs that look alike come from different tables or passages of the source.

Tests used:
Assay type in all cases: cell-based, human
[1] = tested on: senescent IMR90 ER:RAS cells (4-OHT-induced); test: Nuclei count (Hoechst, high content imaging) senolytic assay, oncogene-induced senescence (OIS) model, senescent cells
Excerpt: To test for senolytic activity, we compared the effect of each compound on the total cell number (automated high content image-based analysis of total number of nuclei per well) in non-senescent and senescent IMR90 ER:RAS cultures treated with the top hits from the computational screen (Figs. 2e and 3a–d and Supplementary Fig. 4a–c). The drop in cell number compared to untreated controls is indicated by the nuclei count and reflects cell death[13],[15]. As positive control, we employed ouabain, a cardiac glycoside with well characterised senolytic activity.
(§1) We performed experimental validation of the compounds with z-score > 8 (Fig. 2e). […] We employed two cellular models of senescence: one of OIS and a second one of TIS. For the OIS case, we utilised IMR90 ER:RAS cells with 4-OHT at 100 nM. […] For the TIS model, we used A549 cells with etoposide at 100 μM. The exposure of the cells to etoposide lasted 48 h, after which period the cells were cultivated for a further three days with normal media.
(§2) IMR90 (CCL-186) human foetal lung fibroblasts and A549 (CCL-185) human lung adenocarcinoma cells were obtained from the American Type Culture Collection (ATCC, Manassas, VA). The cell lines were confirmed to be mycoplasma negative (Lonza MycoAlert, cat #LT07-118). IMR90 ER:RAS is a derivative of IMR90 cells expressing a switchable version of oncogenic H-Ras[84]. IMR90 ER:RAS and A549 cells were maintained in Dulbecco’s Modified Eagle Medium (DMEM, ThermoFisher) supplemented with foetal bovine serum (10%), L-glutamine (2 mM, ThermoFisher), and antibiotic-antimycotic solution (1%, ThermoFisher) and incubated under standard tissue culture conditions (37 °C and 5% CO2). For induction of the senescent phenotype, IMR90-ER:RAS cells were cultured in hydroxytamoxifen (4-OHT) (Sigma) added media at 100 nM final concentration. IMR90 were kept in culture for over 27 passages for replicative senescence. Cells were tested for mycoplasma on a regular basis.
(§3) Cells were seeded (50 μL per well) into 384-well plates (IMR90 ER:RAS cells in Nunc Optical Bottom Polybase Microplates [#142761, Thermo Scientific, Rochester, NY] and A549 cells in CELLSTAR Cell Culture Microplates [#781091, Greiner Bio-One, Kremsmünster, Austria]). Cells were incubated under standard tissue culture conditions for 24 h before the addition of compounds. Passage 14 IMR90 ER:RAS cells were seeded at 1300 cells per well in the control condition, and at 1600 cells per well in the senescent case. Passage 34 A549 cells were seeded at 7000 cells per well in the control condition, and at 10,000 cells per well in the senescent case.
(§4) Dose response plates were prepared with a DMSO control and a 10-point […] concentration range, and added to the compounds using a D300e digital dispenser (Tecan Trading AG, Switzerland) at a final concentration of between 10 μM and 10 nM. Every screened condition was carried out in triplicate. After 72 h of incubation with exposure to the compounds, cells were fixed by the addition of an equal volume of formaldehyde (8%, 50 μL; #BP531-500, Fisher Bioreagents, Fisher Scientific, Loughborough, Leicestershire) to the existing media, incubated at room temperature (30 min), and washed three times in phosphate-buffered saline (PBS). Cells were then permeabilised in Triton-X100 (0.1%, 50 μL) and incubated at room temperature (30 min) followed by three more washes with PBS.
(§5) Cells were stained with Hoechst 33342 for nuclei count (excitation/emission wavelength at 387/447 […], DAPI channel, original concentration at 10 mg/ml, final concentration at 2 μg/ml; H1399, Molecular Probes, Eugene, OR). The staining solution was prepared in bovine serum albumin solution (10%). The staining solution was added to each well (30 μL) and incubated in the dark at room temperature (30 min), followed by three washes with PBS and no final aspiration. Plates were foil sealed.

[2] = tested on: senescent A549 cells (etoposide-induced); test: Nuclei count senolytic assay, therapy-induced senescence (TIS) model, senescent cells; conditions: Homo sapiens, A549, Senescent cells, mean, read-out: Mean % Cell Survival
Experimental: (§6) We performed a second validation of the effectiveness of our machine learning models using a different stressor. We focused on therapy-induced senescence (TIS, Supplementary Fig. 6a), where human epithelial cancerous cells (A549) were induced to become senescent by addition of etoposide. Cells were treated with 100 μM etoposide for 48 h, followed by another three days of exposure to media in standard conditions.
as §1, §2, §3, §4, §5
(§7) Plates were imaged on an ImageXpress micro XLS (Molecular Devices, Eugene, OR) equipped with a robotic plate loader (Scara4, PAA, UK).

[3] = tested on: non-senescent control A549 cells; test: Nuclei count senolytic assay, TIS model, non-senescent control cells; conditions: Homo sapiens, A549, Control cells, mean, read-out: Mean % Cell Survival
Experimental: as §6, §1, §2, §3, §4, §5, §7

[4] = Homo sapiens, IMR-90, 72 h, Senescent, log (dose) [M] -5, 72 h, mean n=3 (Fig 3C), read-out: Mean % Cell Survival
[5] = Homo sapiens, IMR-90, 72 h, Senescent, log (dose) [M] -5.33, 72 h, mean n=3 (Fig 3C), read-out: Mean % Cell Survival
[6] = Homo sapiens, IMR-90, 72 h, Senescent, log (dose) [M] -5.66, 72 h, mean n=3 (Fig 3C), read-out: Mean % Cell Survival
[7] = Homo sapiens, IMR-90, 72 h, Senescent, log (dose) [M] -6, 72 h, mean n=3 (Fig 3C), read-out: Mean % Cell Survival
[8] = Homo sapiens, IMR-90, 72 h, Senescent, log (dose) [M] -6.33, 72 h, mean n=3 (Fig 3C), read-out: Mean % Cell Survival
[9] = Homo sapiens, IMR-90, 72 h, Senescent, log (dose) [M] -6.66, 72 h, mean n=3 (Fig 3C), read-out: Mean % Cell Survival
[10] = Homo sapiens, IMR-90, 72 h, Senescent, log (dose) [M] -7, 72 h, mean n=3 (Fig 3C), read-out: Mean % Cell Survival
[11] = Homo sapiens, IMR-90, 72 h, Senescent, log (dose) [M] -7.33, 72 h, mean n=3 (Fig 3C), read-out: Mean % Cell Survival
[12] = Homo sapiens, IMR-90, 72 h, Senescent, log (dose) [M] -7.66, 72 h, mean n=3 (Fig 3C), read-out: Mean % Cell Survival
[13] = Homo sapiens, IMR-90, 72 h, Senescent, log (dose) [M] -8, 72 h, mean n=3 (Fig 3C), read-out: Mean % Cell Survival

CO[C@H]1C[C@@H]2CC[C@@H](C)[C@@](O)(O2)C(=O)C(=O)N2CCCC[C@H]2C(=O)O[C@H]([C@H](C)C[C@@H]2CC[C@@H](OP(C)(C)=O)[C@H](OC)C2)CC(=O)[C@H](C)/C=C(\C)[C@@H](O)[C@@H](OC)C(=O)[C@H](C)C[C@H](C)/C=C/C=C/C=C/1C [Ridaforolimus, ridaforolimus, reference compound]
viability at 10 µM [1, 4]: 122%
viability at 4.677 µM [1, 5]: 144%
viability at 2.188 µM [1, 6]: 164%
viability at 1 µM [1, 7]: 156%
viability at 0.4677 µM [1, 8]: 160%
viability at 0.2188 µM [1, 9]: 156%
viability at 0.1 µM [1, 10]: 126%
viability at 0.04677 µM [1, 11]: 128%
viability at 0.02188 µM [1, 12]: 131%
viability at 0.01 µM [1, 13]: 105%
viability at 2.188 µM ([1]; Homo sapiens, IMR-90, Senescent cells, log (dose) [M] -5.66, individual replicates, SUP FIG 4C, read-out: % Cell Survival): 166%
viability at 0.02188 µM ([1]; Homo sapiens, IMR-90, Senescent cells, log (dose) [M] -7.66, individual replicates, SUP FIG 4C, read-out: % Cell Survival): 129%
viability at 0.02188 µM ([1]; Homo sapiens, IMR-90, Senescent, log (dose) [M] -7.66, read-out: % Cell Survival): 81.7%
viability at 0.01 µM ([1]; Homo sapiens, IMR-90, Senescent, log (dose) [M] -8, read-out: % Cell Survival): 78.7%
viability at 10 µM ([2]; log (dose) [M] -5): 162%
viability at 4.68 µM ([2]; log (dose) [M] -5.33): 174%
viability at 2.19 µM ([2]; log (dose) [M] -5.66): 157%
viability at 1 µM ([2]; log (dose) [M] -6): 66.9%
viability at 0.468 µM ([2]; log (dose) [M] -6.33): 113%
viability at 0.219 µM ([2]; log (dose) [M] -6.66): 102%
viability at 0.1 µM ([2]; log (dose) [M] -7): 60.6%
viability at 0.0468 µM ([2]; log (dose) [M] -7.33): 60.9%
viability at 0.0219 µM ([2]; log (dose) [M] -7.66): 84.7%
viability at 0.01 µM ([2]; log (dose) [M] -8): 87.1%
viability at 10 µM ([3]; log (dose) [M] -5): 110%
viability at 4.68 µM ([3]; log (dose) [M] -5.33): 121%
viability at 2.19 µM ([3]; log (dose) [M] -5.66): 69%
viability at 1 µM ([3]; log (dose) [M] -6): 65.1%
viability at 0.468 µM ([3]; log (dose) [M] -6.33): 96%
viability at 0.219 µM ([3]; log (dose) [M] -6.66): 102%
viability at 0.1 µM ([3]; log (dose) [M] -7): 97.4%
viability at 0.0468 µM ([3]; log (dose) [M] -7.33): 108%
viability at 0.0219 µM ([3]; log (dose) [M] -7.66): 74.4%
viability at 0.01 µM ([3]; log (dose) [M] -8): 107%

C[C@@H]1O[C@@H](O[C@H]2C[C@@H](O)[C@]3(CO)[C@H]4[C@H](O)C[C@]5(C)[C@@H](C6=CC(=O)OC6)CC[C@]5(O)[C@@H]4CC[C@]3(O)C2)[C@H](O)[C@H](O)[C@H]1O [Ouabain, ouabain, reference compound]
viability at 10 µM [1, 4]: 2.57%
viability at 4.677 µM [1, 5]: 2.79%
viability at 2.188 µM [1, 6]: 3.51%
viability at 1 µM [1, 7]: 4.22%
viability at 0.4677 µM [1, 8]: 4.07%
viability at 0.2188 µM [1, 9]: 2.69%
viability at 0.1 µM [1, 10]: 4.75%
viability at 0.04677 µM [1, 11]: 11.8%
viability at 0.02188 µM [1, 12]: 73%
viability at 0.01 µM [1, 13]: 89.4%
viability at 10 µM ([1]; Homo sapiens, IMR-90, senescence cells, log (dose) [M] -5, read-out: % Cell Survival): 2.5%
viability at 4.677 µM ([1]; Homo sapiens, IMR-90, senescence cells, log (dose) [M] -5.33, read-out: % Cell Survival): 2.14%
viability at 2.188 µM ([1]; Homo sapiens, IMR-90, senescence cells, log (dose) [M] -5.66, read-out: % Cell Survival): 4.05%
viability at 1 µM ([1]; Homo sapiens, IMR-90, senescence cells, log (dose) [M] -6, read-out: % Cell Survival): 4.29%
viability at 0.4677 µM ([1]; Homo sapiens, IMR-90, senescence cells, log (dose) [M] -6.33, read-out: % Cell Survival): 5.48%
viability at 0.2188 µM ([1]; Homo sapiens, IMR-90, senescence cells, log (dose) [M] -6.66, read-out: % Cell Survival): 3.1%
viability at 0.1 µM ([1]; Homo sapiens, IMR-90, senescence cells, log (dose) [M] -7, read-out: % Cell Survival): 4.88%
viability at 0.04677 µM ([1]; Homo sapiens, IMR-90, senescence cells, log (dose) [M] -7.33, read-out: % Cell Survival): 11.2%
viability at 0.02188 µM ([1]; Homo sapiens, IMR-90, senescence cells, log (dose) [M] -7.66, read-out: % Cell Survival): 70.8%
viability at 0.01 µM ([1]; Homo sapiens, IMR-90, senescence cells, log (dose) [M] -8, read-out: % Cell Survival): 86.1%
IC50 ([1]; Homo sapiens, IMR-90, OIS model, 4-OHT-induced IMR90 ER:RAS, nuclei count, 72 h): 28 nM
dose showing the clearest / optimal senolytic effect ([1]; OIS IMR90 ER:RAS, Hoechst nuclei count, marginal effect on normal cells): 46.4 nM
